According to patent US11963964B2, “Small molecules for mouse satellite cell proliferation” (President and Fellows of Harvard College, priority 2011, dated 2024):
“Also recorded” adds a separate entry of the source.

Columns and labels:
human satellite cells = assay: Expansion of human satellite cells; type: cell-based
satellite cells (SMPs) [1] = assay: Satellite cell (SMP) proliferation with or without bFGF, 300 cells/well; type: cell-based, mouse; settings: for additive or synergistic action with bFGF: compound plus bFGF versus bFGF alone (FIGS. 15-17, 28, 29)
satellite cells [2] = assay: Satellite cell proliferation screen and dose response, image-based cell count; set-up: species or system mouse; settings: for activity on in vitro satellite cell proliferation (in words): screen hits tested in dose response / retest
primary fibroblasts = assay: Specificity test on Sca1-positive fibroblasts (Ki67); type: cell-based, mouse; settings: primary fibroblasts (FIG. 23)
[3] = test system: satellite cells from aged and young tissue; assay: Proliferation of satellite cells from aged and young mice; type: cell-based, mouse; settings: aged cells as well as young cells (FIGS. 24, 25)
satellite cells (SMPs) [4] = assay: Differentiation of compound-treated SMPs into myotubes (myosin heavy chain staining); type: cell-based, mouse; settings: compound in proliferation conditions, then differentiation media
Description: CAG-EGFP satellite cells were grown in the inventors' standard proliferation conditions and exposed to compounds for four days. Under the inventors' standard proliferation conditions cells were cultured on laminin-coated plates in Ham's F-10 medium supplemented with 10% heat inactivated horse serum, 100Units/mL penicillin/100 ug/mL streptomycin, and 2 mM L-glutamine. Compounds were added the day after plating. The compounds and media were either refreshed daily or after three days. To differentiate cells and form myotubes, after four days in proliferation conditions, media was switched to high-glucose DMEM supplemented with 10% heat inactivated horse serum, 10% fetal bovine serum, 0.5% chick embryo extract, 100Units/mL penicillin/100 ug/mL streptomycin, and 2 mM L-glutamine. Cultures were grown in differentiation media for 3-5 days until myotube formation was observed, then fixed. Cultures were then switched into differentiation media and cultured another four days. They were then fixed and stained with anti-myosin heavy chain (red channel) and Hoechst (blue channel).
For these experiments, 300 cells were plated in each well at Day 0 in our standard proliferation media (10% horse serum in F-10). […]
The inventors also assessed effects these compounds were having on the identity of the satellite cells and their ability to differentiate in culture. […]

myoblasts = assay: Myoblast differentiation in differentiation media (5% horse serum); type: cell-based; settings: differentiation media comprising 5% horse serum (FIG. 39)
satellite cells [5] = assay: Satellite cell proliferation in combination with TGF-beta inhibitor (Alk5 inhibitor II); type: cell-based, mouse
[6] = test system: satellite cells from Tg:Pax7-nGFP mice; assay: LINCS library screen for satellite cell proliferation (Hoechst 33342 high content imaging); type: cell-based, mouse; settings: satellite cells cultured for 4 days, 96w plates
From the text: This example includes a list of primary hits from a screen designed to identify compounds that promote satellite cell proliferation in vitro. The satellite cell is a skeletal muscle stem cell responsible for post-natal muscle growth and regeneration. […] The four compound libraries tested, LINCS 1, 2, 3 and 4, were provided to us by the Sorger lab at Harvard Medical School. The Sorger lab is a member of the LINCS (Library of Integrated Network-Based Cellular Signatures) Consortium, which is an NIH initiative aiming to generate public data to further research of therapeutically relevant cellular pathways. LINCS 1, 2, and 4 contain kinase inhibitors, while LINCS 3 contains epigenetic modifiers.
FIG. 50 identifies small molecules that promote satellite cell proliferation screen in this Example. (A) Chemical screen experimental schematic outlining FACS isolation and compound library treatment of satellite cells. (B) Representative dose response curves from four of the top ten compounds. Top ten compounds were chosen based on highest fold change of cell proliferation relative to vehicle controls. Proliferation was assessed via high content imaging using Hoechst 33342 as a cell marker. (C) Representative fluorescent images of FACS sorted satellite cells from Tg:Pax7-nGFP mice on 96w plates cultured for 4 days and treated with vehicle, compound or positive control (Jak3 inhibitor 6). Optimal treatment concentration for each compound was determined in dose response; 3 uM for XMD8-92, 5 uM for SB23906, 800 nM for XMD11-50, and 400 nM for Vorinostat. Hoechst 33342 was used as a cell marker. Scale bars denote 100 um. (D) Fold change relative to vehicle control for several compounds that promote satellite cell expansion.
Satellite cells were isolated from intact limb muscle and prepared for fluorescence activated cell sorting (FACS) as described previously (Rocheteau et al., 2012). FACS was performed at Harvard University at the Bauer Flow Cytometry Core Facility on a Beckman Coulter MoFlo Legacy (Beckman Coulter). Satellite cells were sorted into Eppendorf tubes, and plated onto 96 well plates by hand (Greiner). Plates were pre-coated at 37° C. for 4 hours with […] laminin diluted in PBS. Sorted cells were cultured in StemSpan SFEM II basal medium (Stem Cell Technologies) supplemented with 0.05 ng/mL basic fibroblast growth factor (bFGF, Life Technologies). Wells for the positive control were treated with 600 nM Jak3 inhibitor IV (EMD Millipore). For screening and dose response follow up, cells were plated at 150 cells/well.
The day cells were plated was considered Day 0. Compounds were added on Day 1. For screening and dose response follow up, cells were incubated without media change until Day 4 and plates were prepared for imaging. […]

CC(C)(C)c1cc(NC(=O)Nc2ccc(-c3cn4c(n3)sc3cc(OCCN5CCOCC5)ccc34)cc2)no1 [AC220, quizartinib]
expansion of human satellite cells (in words) (human satellite cells): ability to expand human satellite cells at low doses

CCCC1O[C@@H]2C[C@H]3[C@@H]4CCC5=CC(=O)C=C[C@]5(C)[C@H]4[C@@H](O)C[C@]3(C)[C@]2(C(=O)CO)O1 (stereo partly shown) [Budesonide]
additive or synergistic action with bFGF (satellite cells (SMPs) [1]): no additional increase
activity on in vitro satellite cell proliferation (in words) (satellite cells [2]): identified and validated; also recorded: proliferation levels much greater than that seen in the negative control

C[C@]12O[C@H](C[C@]1(O)CO)n1c3ccccc3c3c4c(c5c6ccccc6n2c5c31)CNC4=O [CEP701, Lestaurtinib]
effect on fibroblast proliferation (primary fibroblasts): no effect
increase in proliferation, CEP701 and bFGF together (satellite cells (SMPs) [1]; 0.05 μM CEP701 + 5 ng/mL bFGF daily, 300 cells/well, fixed four days after plating (FIG. 14)): 8 fold
proliferation of the input SMP cells (level) (satellite cells [2]; retest, DMSO-treated cells 1±0.3 in both trials): ~4.7±1.4
optimum concentration [3]: 50 nM

OC[C@H]1O[C@@H](n2cnc3c(NC4CCCC4)ncnc32)[C@H](O)[C@@H]1O [N6-cyclopentyladenosine]
ability of treated cells to differentiate and fuse to form myotubes (satellite cells (SMPs) [4]): able to form myotubes
increase in the cell number, combination of CPA and bFGF (satellite cells (SMPs) [1]; CPA 30 μM + bFGF (FIG. 28)): fifteen-fold
additive or synergistic action with bFGF (satellite cells (SMPs) [1]): seen to synergize with bFGF
myoblast differentiation (myoblasts): drive myoblast differentiation
additive effect with TGF-beta inhibitor (Alk5 inhibitor II) (satellite cells [5]; compound plus Alk5 inhibitor II (FIGS. 21, 32)): slight increase in proliferation
activity on in vitro satellite cell proliferation (in words) (satellite cells [2]): identified and validated; also recorded: increase in vitro satellite cell proliferation
activity on in vitro satellite cell proliferation (in words) (satellite cells [2]; listed as CPA): proliferation levels much greater than that seen in the negative control

COc1nccc(-c2c(-c3ccc(F)cc3)ncn2C2CCC(O)CC2)n1 (stereo not shown) [SB23906]
optimal treatment concentration determined in dose response [6]: 5 µM

N#C/C(=C\c1ccc(O)c(O)c1)C(=O)NCc1ccccc1 [Tyr AG490]
myoblast differentiation (myoblasts): drive myoblast differentiation

O=C(CCCCCCC(=O)Nc1ccccc1)NO [Vorinostat, suberoylanilide hydroxamic acid]
optimal treatment concentration determined in dose response [6]: 0.4 µM

CCOc1cc(N2CCC(O)CC2)ccc1Nc1ncc2c(n1)N(C)c1ccccc1C(=O)N2C [XMD8-92]
optimal treatment concentration determined in dose response [6]: 3 µM

COc1cc(C(=O)N2CCC(N3CCN(C)CC3)CC2)ccc1Nc1ncc2c(n1)N(C)c1ccccc1C(=O)N2C [XMD11-50]
optimal treatment concentration determined in dose response [6]: 0.8 µM

Alk5 inhibitor II
proliferation on addition of Alk5 inhibitor II to the cultures (satellite cells [5]; Alk5 inhibitor II alone): slight increase in proliferation

bFGF: basic fibroblast growth factor, positive control
ability of treated cells to differentiate and fuse to form myotubes (satellite cells (SMPs) [4]): able to form large myotubes
increase in the cell number, bFGF alone (satellite cells (SMPs) [1]; FIG. 28): six-fold
number of cells per well at the end of the assay (satellite cells [2]; 50 cells/well plated, Day 4, DMSO-treated wells around 50 cells): 150-250 cells
level of proliferation, fold change over the DMSO vehicle control (satellite cells [2]; FIG. 3A, positive control, DMSO 1±0.3): 3.4±0.9 fold change
level of proliferation, fold change over the DMSO vehicle control (normalized value) (satellite cells [2]; FIG. 3B, re-supplied compounds dose response, 50 cells/well, positive control, DMSO 1±0.4): 5.6±1.7 fold change
